Data reported in patent US20090004101A1, “Method and Means for Enhanced Pulmonary Drug Delivery” (UNIVERSITY COLLEGE CARDIFF CONSULTANTS LIMITED, priority 2004, published 2009).

Key:
[1] = EDTA co-administered; cited from earlier work
[2] = Pulmonary absorption of human insulin co-administered intratracheally with P2Y receptor agonists to anesthetized rabbits (plasma insulin by radioimmunoassay); type: in vivo, New Zealand white rabbits; conditions: for Effect of the P2Y agonist on t1/2, Cmax and F of insulin administered to the lungs: co-administered with insulin to rabbit lungs, summary in words; for Cmax of insulin / F (bioavailable fraction) of insulin / t1/2 of insulin: rabbit, mean±SD, n=4
Method: Briefly, New Zealand white rabbits were anesthetized with Hypnovel (Roche, Welwyn Garden City, UK), 0.3 mg/kg i.v. via cannula in the ear, and Hypnorrn (Janssen Animal Health, Grove, Oxford, UK), 0.1 mg/kg via intramuscular injection. Once intubated with a polyethylene endotracheal tube (i.d. 4 mm, o.d. 5 mm; Portex, UK) coated with a layer of xylocalne gel (Astra Pharmaceuticals, Kings Langley, UK), a second, smaller polyethylene dosing tube was inserted inside the endotracheal tube to the point of the bifurcation of the trachea.

[3] = insulin 10 U/kg intratracheal with Up4U 0.2 mg (2.0 mg/mL)
[4] = insulin 10 U/kg intratracheal with Up4U 0.62 mg (6.2 mg/mL)

Structure (SMILES): O=C(O)CN(CCN(CC(=O)O)CC(=O)O)CC(=O)O [EDTA]
- Effect on uptake of calcitonin following intratracheal administration to the lungs [1]: did increase

Structure (SMILES): O=c1ccn([C@@H]2O[C@H](COP(=O)(O)OP(=O)(O)OP(=O)(O)O)[C@@H](O)[C@H]2O)c(=O)[nH]1 [UTP, uridine 5′-triphosphate]
- Effect of the P2Y agonist on t1/2, Cmax and F of insulin administered to the lungs [2]: increase the half life (t1/2), maximal plasma concentration (Cmax) and the overall bioavailable fraction (F) of insulin
- Cmax of insulin ([2]; insulin 10 U/kg intratracheal with UTP 0.34 mg (3.4 mg/mL)): 828 ± 42.4 μU/mL
- Cmax of insulin ([2]; insulin 10 U/kg intratracheal with UTP 1.5 mg (15 mg/mL)): 1515 ± 297 μU/mL

Structure (SMILES): O=c1ccn([C@@H]2O[C@H](COP(=O)(O)OP(=O)(O)OP(=O)(O)OP(=O)(O)OC[C@H]3O[C@@H](n4ccc(=O)[nH]c4=O)[C@H](O)[C@@H]3O)[C@@H](O)[C@H]2O)c(=O)[nH]1 [Up4U, P^1,P^4-di(uridine 5′-)tetraphosphate]
- Effect of the P2Y agonist on t1/2, Cmax and F of insulin administered to the lungs [2]: increase the half life (t1/2), maximal plasma concentration (Cmax) and the overall bioavailable fraction (F) of insulin
- Cmax of insulin [2, 3]: 531 ± 89.5 μU/mL
- F (bioavailable fraction) of insulin [2, 3]: 8.07 ± 3.40%
- t1/2 of insulin [2, 3]: 1.33 ± 0.7102 h
- Cmax of insulin [2, 4]: 655 ± 46.17 μU/mL
- F (bioavailable fraction) of insulin [2, 4]: 5.47 ± 1.03%
- t1/2 of insulin [2, 4]: 0.798 ± 0.0372 h
